From the Kinase Knowledgebase extract (Sharma et al. 2016)

Legend:
Experiment in all cases: Enzyme Assay
PIK3CB (Human) = PIK3CB (Human) (UniProt P42338)
PIK3CA (human) = PIK3CA (human) (UniProt P42336)
PIK3CG (human) = PIK3CG (human) (UniProt P48736)
PIK3CD (Human) = PIK3CD (Human) (UniProt O00329)
Sequence of PIK3CD (Human) (O00329 whole entry, looked up): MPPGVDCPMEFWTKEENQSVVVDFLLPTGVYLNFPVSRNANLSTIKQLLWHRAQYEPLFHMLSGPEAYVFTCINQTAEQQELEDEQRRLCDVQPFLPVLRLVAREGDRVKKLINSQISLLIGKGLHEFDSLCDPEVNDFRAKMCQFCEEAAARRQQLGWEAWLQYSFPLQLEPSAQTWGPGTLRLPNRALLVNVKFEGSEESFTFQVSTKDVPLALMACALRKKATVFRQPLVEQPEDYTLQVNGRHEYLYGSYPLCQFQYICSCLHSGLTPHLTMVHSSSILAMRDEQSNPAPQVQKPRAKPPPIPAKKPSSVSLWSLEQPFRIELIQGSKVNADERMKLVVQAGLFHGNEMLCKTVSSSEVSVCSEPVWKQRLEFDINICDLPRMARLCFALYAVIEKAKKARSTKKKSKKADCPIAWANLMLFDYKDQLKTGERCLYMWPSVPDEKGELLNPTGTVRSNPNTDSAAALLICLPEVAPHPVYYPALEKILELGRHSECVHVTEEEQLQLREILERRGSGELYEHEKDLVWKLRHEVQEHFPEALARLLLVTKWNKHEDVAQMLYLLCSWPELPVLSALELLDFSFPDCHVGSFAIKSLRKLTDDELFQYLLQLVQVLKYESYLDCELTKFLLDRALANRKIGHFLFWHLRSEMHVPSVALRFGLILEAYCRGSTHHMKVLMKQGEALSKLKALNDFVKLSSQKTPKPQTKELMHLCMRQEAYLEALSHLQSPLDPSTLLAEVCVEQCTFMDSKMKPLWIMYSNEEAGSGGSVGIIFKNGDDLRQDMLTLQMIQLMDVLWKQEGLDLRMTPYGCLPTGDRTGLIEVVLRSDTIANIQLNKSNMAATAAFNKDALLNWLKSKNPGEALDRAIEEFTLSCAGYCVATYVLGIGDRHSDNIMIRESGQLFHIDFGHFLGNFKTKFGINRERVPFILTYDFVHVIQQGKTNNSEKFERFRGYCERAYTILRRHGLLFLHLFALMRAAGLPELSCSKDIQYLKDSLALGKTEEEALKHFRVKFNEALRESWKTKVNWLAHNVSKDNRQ

Sequence of PIK3CA (human) (P42336 whole entry, looked up): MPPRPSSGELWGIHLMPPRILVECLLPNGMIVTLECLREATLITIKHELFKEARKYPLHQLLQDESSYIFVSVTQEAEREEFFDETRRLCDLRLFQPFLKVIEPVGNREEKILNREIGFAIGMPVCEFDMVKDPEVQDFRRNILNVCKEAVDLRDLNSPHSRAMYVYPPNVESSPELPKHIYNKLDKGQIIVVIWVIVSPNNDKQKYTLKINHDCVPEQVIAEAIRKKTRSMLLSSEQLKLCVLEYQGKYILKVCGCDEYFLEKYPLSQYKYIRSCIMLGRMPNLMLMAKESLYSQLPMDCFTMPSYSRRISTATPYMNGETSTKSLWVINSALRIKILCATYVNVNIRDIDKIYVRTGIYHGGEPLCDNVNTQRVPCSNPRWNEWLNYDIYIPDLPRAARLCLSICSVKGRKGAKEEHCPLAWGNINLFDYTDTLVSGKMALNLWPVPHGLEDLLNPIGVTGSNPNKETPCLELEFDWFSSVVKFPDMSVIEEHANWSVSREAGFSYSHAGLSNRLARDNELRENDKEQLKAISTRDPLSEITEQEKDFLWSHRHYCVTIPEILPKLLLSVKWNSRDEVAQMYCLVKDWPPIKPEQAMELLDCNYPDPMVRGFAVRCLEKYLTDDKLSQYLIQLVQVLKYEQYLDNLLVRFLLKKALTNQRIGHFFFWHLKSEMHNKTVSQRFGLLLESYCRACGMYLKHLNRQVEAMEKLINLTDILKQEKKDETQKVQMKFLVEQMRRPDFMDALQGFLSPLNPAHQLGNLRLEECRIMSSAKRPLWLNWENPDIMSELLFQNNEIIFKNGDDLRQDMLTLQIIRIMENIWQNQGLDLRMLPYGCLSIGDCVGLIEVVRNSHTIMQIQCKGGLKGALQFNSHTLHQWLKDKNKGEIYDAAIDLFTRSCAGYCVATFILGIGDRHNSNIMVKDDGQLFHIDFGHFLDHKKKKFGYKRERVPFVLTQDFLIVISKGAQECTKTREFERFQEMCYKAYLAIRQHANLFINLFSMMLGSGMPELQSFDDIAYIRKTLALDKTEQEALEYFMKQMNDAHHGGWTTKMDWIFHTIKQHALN
Sequence of PIK3CG (human) (P48736 whole entry, looked up): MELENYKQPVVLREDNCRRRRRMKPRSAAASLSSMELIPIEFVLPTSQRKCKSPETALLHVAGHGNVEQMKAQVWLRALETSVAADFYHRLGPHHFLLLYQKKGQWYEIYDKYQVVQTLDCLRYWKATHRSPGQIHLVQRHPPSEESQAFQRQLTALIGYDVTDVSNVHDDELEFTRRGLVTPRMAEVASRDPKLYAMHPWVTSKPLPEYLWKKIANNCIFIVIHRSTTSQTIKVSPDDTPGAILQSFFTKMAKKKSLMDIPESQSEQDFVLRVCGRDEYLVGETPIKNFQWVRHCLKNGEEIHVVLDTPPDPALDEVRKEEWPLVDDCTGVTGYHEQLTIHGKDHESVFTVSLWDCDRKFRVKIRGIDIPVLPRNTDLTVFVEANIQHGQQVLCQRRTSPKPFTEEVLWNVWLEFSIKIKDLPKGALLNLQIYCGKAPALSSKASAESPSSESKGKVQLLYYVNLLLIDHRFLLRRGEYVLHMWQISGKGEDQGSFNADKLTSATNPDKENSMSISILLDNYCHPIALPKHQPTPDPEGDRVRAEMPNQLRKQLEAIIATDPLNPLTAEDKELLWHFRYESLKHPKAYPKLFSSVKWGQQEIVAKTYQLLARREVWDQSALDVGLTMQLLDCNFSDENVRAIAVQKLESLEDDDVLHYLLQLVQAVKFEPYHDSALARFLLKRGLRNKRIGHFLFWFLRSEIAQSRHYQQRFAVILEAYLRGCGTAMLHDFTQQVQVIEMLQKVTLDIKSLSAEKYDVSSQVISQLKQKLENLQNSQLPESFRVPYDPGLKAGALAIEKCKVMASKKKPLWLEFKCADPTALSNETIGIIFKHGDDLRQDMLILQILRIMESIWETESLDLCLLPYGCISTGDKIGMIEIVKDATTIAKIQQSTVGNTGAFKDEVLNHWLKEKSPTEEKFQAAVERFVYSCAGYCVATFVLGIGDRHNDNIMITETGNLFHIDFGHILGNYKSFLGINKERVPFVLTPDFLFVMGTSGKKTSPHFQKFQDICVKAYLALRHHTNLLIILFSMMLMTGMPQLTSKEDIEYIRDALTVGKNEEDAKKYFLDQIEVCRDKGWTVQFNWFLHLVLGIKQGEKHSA
Sequence of PIK3CB (Human) (P42338 whole entry, looked up): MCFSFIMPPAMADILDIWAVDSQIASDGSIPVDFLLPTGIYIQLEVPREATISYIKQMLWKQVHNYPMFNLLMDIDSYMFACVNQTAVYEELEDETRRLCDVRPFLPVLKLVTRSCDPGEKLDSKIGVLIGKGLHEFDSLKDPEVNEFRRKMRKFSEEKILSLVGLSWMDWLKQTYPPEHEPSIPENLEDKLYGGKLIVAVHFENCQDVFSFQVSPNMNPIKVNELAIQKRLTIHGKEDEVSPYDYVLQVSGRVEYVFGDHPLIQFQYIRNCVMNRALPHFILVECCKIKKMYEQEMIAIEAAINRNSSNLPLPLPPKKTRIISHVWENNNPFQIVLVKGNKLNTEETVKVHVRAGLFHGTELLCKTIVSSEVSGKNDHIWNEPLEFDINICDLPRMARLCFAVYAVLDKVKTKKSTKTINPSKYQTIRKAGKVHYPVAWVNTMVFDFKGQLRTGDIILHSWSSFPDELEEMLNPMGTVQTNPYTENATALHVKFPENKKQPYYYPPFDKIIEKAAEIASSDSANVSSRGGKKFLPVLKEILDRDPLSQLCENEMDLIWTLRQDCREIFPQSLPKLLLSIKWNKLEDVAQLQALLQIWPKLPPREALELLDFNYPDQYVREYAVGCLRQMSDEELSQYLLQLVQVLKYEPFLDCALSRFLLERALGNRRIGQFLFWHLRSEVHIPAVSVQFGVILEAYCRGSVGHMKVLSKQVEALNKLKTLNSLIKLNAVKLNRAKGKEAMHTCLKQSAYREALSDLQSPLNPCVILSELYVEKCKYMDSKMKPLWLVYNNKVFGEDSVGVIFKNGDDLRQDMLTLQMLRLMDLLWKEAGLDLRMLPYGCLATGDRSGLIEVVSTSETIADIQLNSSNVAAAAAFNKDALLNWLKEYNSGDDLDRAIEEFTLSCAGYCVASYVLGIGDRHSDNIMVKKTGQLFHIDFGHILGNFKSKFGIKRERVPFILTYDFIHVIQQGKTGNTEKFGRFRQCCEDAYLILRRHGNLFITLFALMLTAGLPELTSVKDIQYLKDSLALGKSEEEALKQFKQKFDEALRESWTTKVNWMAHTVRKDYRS

Row | Structure (SMILES) | IC50 (PIK3CB (Human)) [µM] | IC50 (PIK3CA (human)) [µM] | IC50 (PIK3CG (human)) [µM] | IC50 (PIK3CD (Human)) [µM]
1 | CCC(Nc1ncnc2[nH]cnc12)c1cc2cccc(C)c2c(=O)n1C1CCC1 (stereo unspecified) | – | > 10 | 0.1 to 1 | < 0.1
2 | CC(=O)Nc1nc2ccc(-c3nn(Cc4cc5cccc(C)c5c(=O)n4-c4ccccc4)c4ncnc(N)c34)cc2o1 | – | – | 0.1 to 1 | 0.1 to 1
3 | Cc1cccc2cc(C(C)Nc3ncnc4[nH]cnc34)n(-c3cccc(F)c3)c(=O)c12 (stereo unspecified) | – | – | 0.1 to 1 | < 0.1
4 | Cc1ccccc1-n1c(Cn2nc(-c3cnn(C)c3)c3c(N)ncnc32)cc2cccc(C)c2c1=O | > 10 | > 10 | 0.1 to 1 | –
5 | Cc1cccc2cc(Cn3nc(-c4cn[nH]c4)c4c(N)ncnc43)n(-c3ccccc3C(F)(F)F)c(=O)c12 | – | > 10 | 0.1 to 1 | < 0.1
6 | Cc1cccc2cc(Cn3nc(-c4ccc5nc(N)oc5c4)c4c(N)ncnc43)n(-c3ccccc3)c(=O)c12 | – | – | < 0.1 | 0.1 to 1
7 | Cc1cccc2cc(Cn3nc(-c4cn[nH]c4)c4c(N)ncnc43)n(-c3ccccc3)c(=O)c12 | – | – | 0.1 to 1 | < 0.1
8 | CNc1ncc(Cl)c(N[C@@H](C)c2cc3cccc(C)c3c(=O)n2-c2ccccc2)n1 | – | > 10 | 0.1 to 1 | 0.1 to 1
9 | Cc1cccc2cc(C(C)Nc3ncnc4[nH]cnc34)n(C3CCOCC3)c(=O)c12 (stereo unspecified) | – | – | 0.1 to 1 | < 0.1
10 | Cc1ccncc1-n1c(Cn2nc(I)c3c(N)ncnc32)cc2cccc(C)c2c1=O | > 10 | – | 0.1 to 1 | –
11 | Cc1cccc2cc(Cn3nc(-c4cn[nH]c4)c4c(N)ncnc43)n(-c3ccccc3Cl)c(=O)c12 | > 10 | > 10 | 0.1 to 1 | –
12 | Cc1ccccc1-n1c(Cn2nc(-c3cccc(F)c3)c3c(N)ncnc32)cc2cccc(C)c2c1=O | > 10 | > 10 | 0.1 to 1 | –
13 | Cc1ccccc1-n1c(Cn2nc(-c3cccc(Cl)c3)c3c(N)ncnc32)cc2cccc(C)c2c1=O | > 10 | > 10 | 0.1 to 1 | –
14 | Cc1ccccc1-n1c(Cn2nc(-c3cnn(CCO)c3)c3c(N)ncnc32)cc2cccc(C)c2c1=O | > 10 | > 10 | 0.1 to 1 | –
15 | Cc1cccnc1-n1c(Cn2nc(I)c3c(N)ncnc32)cc2cccc(C)c2c1=O | – | > 10 | 0.1 to 1 | 0.1 to 1
16 | CC(Nc1ncnc2[nH]cnc12)c1cc2ccccc2c(=O)n1-c1ccccc1 (stereo unspecified) | – | > 10 | 0.1 to 1 | < 0.1
17 | Cc1cccc2cc(Cn3nc(-c4cn[nH]c4)c4c(N)ncnc43)n(-c3cccc(F)c3)c(=O)c12 | > 10 | > 10 | 0.1 to 1 | –
18 | COc1cccc(-c2nn(Cc3cc4cccc(C)c4c(=O)n3-c3ccccc3C)c3ncnc(N)c23)c1 | – | > 10 | 0.1 to 1 | 0.1 to 1
19 | Cc1ccccc1-n1c(Cn2nc(I)c3c(N)nccc32)cc2cccc(C)c2c1=O | > 10 | > 10 | 0.1 to 1 | –
20 | Cc1cccc2cc(C(C)Nc3ncnc4[nH]cnc34)n(C(C)C)c(=O)c12 (stereo unspecified) | – | – | 0.1 to 1 | < 0.1
21 | Cc1cccnc1-n1c(Cn2nc(-c3cccc(O)c3)c3c(N)ncnc32)cc2cccc(C)c2c1=O | > 10 | > 10 | 0.1 to 1 | –
22 | Cc1cccc2cc(Cn3nc(-c4ccc(Cl)c(O)c4)c4c(N)ncnc43)n(C3CCCC3)c(=O)c12 | – | – | 0.1 to 1 | 0.1 to 1
23 | Cc1ccccc1-n1c(Cn2nc(-c3cccc(O)c3)c3c(N)ncnc32)cc2ccccc2c1=O | – | > 10 | 0.1 to 1 | –
24 | Cc1ccccc1-n1c(Cn2nc(C(N)=O)c3c(N)ncnc32)cc2cccc(C)c2c1=O | – | > 10 | 0.1 to 1 | 0.1 to 1
25 | Cc1cccc2cc(Cn3nc(-c4cc(O)cc(F)c4)c4c(N)ncnc43)n(C(C)C)c(=O)c12 | 0.1 to 1 | – | 0.1 to 1 | –
26 | Cc1ccccc1-n1c(Cn2nc(C(=O)NO)c3c(N)ncnc32)cc2cccc(C)c2c1=O | – | > 10 | 0.1 to 1 | 0.1 to 1
27 | Cc1cccc2cc(Cn3nc(-c4cccc(O)c4)c4c(N)ncnc43)n(C3CCCC3)c(=O)c12 | – | > 10 | 0.1 to 1 | –
28 | Cc1ccccc1-n1c(Cn2nc(-c3ccc(Cl)cc3)c3c(N)ncnc32)cc2cccc(C)c2c1=O | – | > 10 | 0.1 to 1 | 0.1 to 1
29 | CCC(Nc1ncnc2[nH]cnc12)c1cc2cccc(C)c2c(=O)n1-c1ccccc1C (stereo unspecified) | – | > 10 | 0.1 to 1 | < 0.1

Further lines, results first:

Row | IC50 (PIK3CB (Human)) [µM] | IC50 (PIK3CA (human)) [µM] | IC50 (PIK3CG (human)) [µM] | IC50 (PIK3CD (Human)) [µM] | Structure (SMILES)
30 | > 10 | > 10 | 0.1 to 1 | – | COc1cc(-c2nn(Cc3cc4cccc(C)c4c(=O)n3-c3ccccc3F)c3ncnc(N)c23)ccc1Cl
31 | > 10 | > 10 | 0.1 to 1 | – | Cc1cccc2cc(Cn3nc(C#C[C@@H](C)O)c4c(N)ncnc43)n(-c3ccccc3F)c(=O)c12
32 | – | > 10 | 0.1 to 1 | < 0.1 | Cc1cccc2cc(Cn3nc(C(F)F)c4c(N)ncnc43)n(-c3ccccc3)c(=O)c12
33 | > 10 | > 10 | 0.1 to 1 | – | COc1ccccc1-n1c(Cn2nc(C#C[C@@H](C)O)c3c(N)ncnc32)cc2cccc(C)c2c1=O
34 | – | > 10 | 0.1 to 1 | 0.1 to 1 | COc1ccc(-c2nn(Cc3cc4cccc(C)c4c(=O)n3-c3ccccc3F)c3ncnc(N)c23)cc1OC
35 | > 10 | > 10 | 0.1 to 1 | – | C=Cc1nn(Cc2cc3cccc(C)c3c(=O)n2-c2ccccc2C)c2ncnc(N)c12
36 | > 10 | > 10 | 0.1 to 1 | – | COc1ccccc1-n1c(Cn2nc(I)c3c(N)ncnc32)cc2cccc(C)c2c1=O
37 | – | > 10 | 0.1 to 1 | < 0.1 | C=C(C)c1nn(Cc2cc3cccc(C)c3c(=O)n2-c2ccccc2)c2ncnc(N)c12
38 | > 10 | – | > 10 | – | Cc1cccc2cc(Cn3nc(-c4cccc(Cl)c4)c4c(N)ncnc43)n(-c3ccccc3F)c(=O)c12
39 | > 10 | > 10 | 0.1 to 1 | – | Cc1cccc2cc(Cn3nc(-c4cnn(CCO)c4)c4c(N)ncnc43)n(-c3ccccc3F)c(=O)c12
40 | > 10 | > 10 | 0.1 to 1 | – | Cc1cccc2cc(Cn3nc(C#C[C@@H](C)O)c4c(N)ncnc43)n(-c3ccccc3Cl)c(=O)c12
41 | > 10 | > 10 | 0.1 to 1 | – | Cc1cccc2cc(Cn3nc(-c4ccc(F)c(O)c4)c4c(N)ncnc43)n(-c3ccccc3F)c(=O)c12
42 | > 10 | – | 0.1 to 1 | – | Cc1cccc2cc(Cn3nc(I)c4c(N)ncnc43)n(-c3ccccc3Cl)c(=O)c12
43 | > 10 | > 10 | 0.1 to 1 | – | Cc1cccc2cc(Cn3nc(C#CCO)c4c(N)ncnc43)n(-c3ccccc3F)c(=O)c12
44 | – | – | 0.1 to 1 | < 0.1 | C=Cc1nn(Cc2cc3cccc(C)c3c(=O)n2-c2ccccc2)c2ncnc(N)c12
45 | > 10 | > 10 | > 10 | – | Cc1cccc2cc(Cn3nc(C=C4CCNC4=O)c4c(N)ncnc43)n(-c3ccccc3F)c(=O)c12
46 | 0.1 to 1 | > 10 | 0.1 to 1 | – | Cc1cccc2cc(Cn3nc(C#C[C@@H](C)O)c4c(N)ncnc43)n(C3CC3)c(=O)c12
47 | – | > 10 | 0.1 to 1 | – | CCc1ccccc1-n1c(Cn2nc(C#C[C@@H](C)O)c3c(N)ncnc32)cc2cccc(C)c2c1=O
